{"source": "patent US20240285554A1", "about": "“POLYVINYL ALCOHOL COMPOSITIONS AND METHODS OF MAKING AND USING THEM” (Emanate Biomedical, Inc., priority 2023, published 2024)", "key": {"oral pathogenic bacteria": {"system": "oral pathogenic bacteria", "conditions": "cited from earlier work"}, "[1]": {"system": "gram positive bacteria and gram negative bacteria", "experiment": "Zone of Inhibition (ZOI) testing", "type": "cell-based", "conditions": "composition with 0.005%, 0.025%, 0.05%, 0.1%, and 0.15% w/w of CHG", "text": "(§1) The CHG concentration of 0.05% w/w was the lowest dose showing strong efficacy against both bacteria and fungus and was therefore selected as the suitable preservative concentration."}, "C. albicans ATCC 10231": {"system": "C. albicans ATCC 10231", "experiment": "Antimicrobial efficacy testing (modified AATCC 100 test)", "type": "cell-based, Candida albicans", "conditions": "contact time 30 min, study NG17964", "text": "as §1"}, "C. tropicalis ATCC 750 [2]": {"system": "C. tropicalis ATCC 750", "experiment": "Antimicrobial efficacy testing (modified AATCC 100 test)", "type": "cell-based, Candida tropicalis", "text": "as §1"}, "S. aureus ATCC 6538": {"system": "S. aureus ATCC 6538", "experiment": "Antimicrobial efficacy testing (modified AATCC 100 test)", "type": "cell-based, Staphylococcus aureus", "conditions": "for Log10 Reduction Compared to Control / Percent Reduction Compared to Control / Average CFU/carrier: S. aureus ATCC 6538, study NG17598-A1; for Average CFU/carrier: limit of detection", "text": "as §1"}, "P. aeruginosa ATCC 9027": {"system": "P. aeruginosa ATCC 9027", "experiment": "Antimicrobial efficacy testing (modified AATCC 100 test)", "type": "cell-based, Pseudomonas aeruginosa", "conditions": "for Log10 Reduction Compared to Control / Percent Reduction Compared to Control / Average CFU/carrier: P. aeruginosa ATCC 9027, study NG17598-A1; for Average CFU/carrier: limit of detection", "text": "as §1"}, "bacteria and fungus": {"system": "bacteria and fungus", "experiment": "Antimicrobial efficacy, choice of preservative concentration", "type": "cell-based", "conditions": "selected as the suitable preservative concentration", "text": "as §1"}, "C. tropicalis ATCC 750 [3]": {"system": "C. tropicalis ATCC 750", "experiment": "Antimicrobial efficacy testing (modified AATCC 100 test)", "type": "cell-based, Candida tropicalis", "conditions": "for Average CFU/carrier / Log10 Reduction Compared to Control / Percent Reduction Compared to Control: C. tropicalis ATCC 750, contact time 30 min, study NG17964; for efficacy: tested against Candida albicans and Candida tropicalis"}, "[4]": {"conditions": "C. tropicalis ATCC 750, CHG Conc 0.05 % w/w, contact time 30 min, study NG17964"}, "[5]": {"conditions": "CHG Conc 0.005 % w/w, contact time 30 min"}, "[6]": {"conditions": "CHG Conc 0.1 % w/w, contact time 60 min"}, "[7]": {"conditions": "CHG Conc 0.1 % w/w, contact time 24 hrs"}}}
{"smiles": "[H]/N=C(\\N/C(=N/[H])NCCCCCCNC(=N)NC(=N)Nc1ccc(Cl)cc1)Nc1ccc(Cl)cc1", "note": "[Chlorhexidine, chlorhexidine]", "values": [{"measurement": "MIC", "setting": "oral pathogenic bacteria; against oral pathogenic bacteria", "value": 0.0125, "unit": "% w/v"}, {"measurement": "MBC", "setting": "oral pathogenic bacteria; at 10 minutes", "value": 0.5, "unit": "% w/v"}]}
{"smiles": "N=C(NCCCCCCNC(=N)NC(=N)Nc1ccc(Cl)cc1)NC(=N)Nc1ccc(Cl)cc1.O=C(O)[C@H](O)[C@@H](O)[C@H](O)[C@H](O)CO.O=C(O)[C@H](O)[C@@H](O)[C@H](O)[C@H](O)CO", "note": "[CHG]", "values": [{"measurement": "effect in Zone of Inhibition (ZOI) testing", "setting": "[1]", "value": "showed inhibitory effects"}, {"measurement": "Average CFU/carrier", "setting": "C. albicans ATCC 10231; CHG Conc 0.005 % w/w", "value": "1.00E+05", "unit": "CFU/carrier"}, {"measurement": "Log10 Reduction Compared to Control", "setting": "C. albicans ATCC 10231; CHG Conc 0.005 % w/w", "value": 0.25}, {"measurement": "Percent Reduction Compared to Control", "setting": "C. albicans ATCC 10231; CHG Conc 0.005 % w/w", "value": 43.52, "unit": "%"}, {"measurement": "Average CFU/carrier", "setting": "C. albicans ATCC 10231; CHG Conc 0.05 % w/w", "value": "2.48E+02", "unit": "CFU/carrier"}, {"measurement": "Log10 Reduction Compared to Control", "setting": "C. albicans ATCC 10231; CHG Conc 0.05 % w/w", "value": 2.86}, {"measurement": "Percent Reduction Compared to Control", "setting": "C. albicans ATCC 10231; CHG Conc 0.05 % w/w", "value": 99.86, "unit": "%"}, {"measurement": "Average CFU/carrier", "setting": "C. albicans ATCC 10231; CHG Conc 0.1 % w/w", "value": "7.50E+00", "unit": "CFU/carrier"}, {"measurement": "Log10 Reduction Compared to Control", "setting": "C. albicans ATCC 10231; CHG Conc 0.1 % w/w", "value": 4.37}, {"measurement": "Percent Reduction Compared to Control", "setting": "C. albicans ATCC 10231; CHG Conc 0.1 % w/w", "value": 99.996, "unit": "%"}, {"measurement": "Log10 Reduction Compared to Control", "setting": "C. tropicalis ATCC 750 [2]; [4]", "value": ">4.46"}, {"measurement": "Percent Reduction Compared to Control", "setting": "C. tropicalis ATCC 750 [2]; [4]", "value": ">99.997", "unit": "%"}, {"measurement": "Average CFU/carrier", "setting": "C. tropicalis ATCC 750 [2]; C. tropicalis ATCC 750, CHG Conc 0.05 % w/w, contact time 30 min, study NG17964, limit of detection", "value": "<5.00E+00^1 CFU/carrier"}, {"measurement": "efficacy", "setting": "C. tropicalis ATCC 750 [2]; tested against Candida albicans and Candida tropicalis, CHG 0.05% w/w", "value": 99.997, "unit": "%"}, {"measurement": "Log10 Reduction Compared to Control", "setting": "S. aureus ATCC 6538; [5]", "value": ">4.40"}, {"measurement": "Percent Reduction Compared to Control", "setting": "S. aureus ATCC 6538; [5]", "value": ">99.996", "unit": "%"}, {"measurement": "Average CFU/carrier", "setting": "S. aureus ATCC 6538; [5]", "value": "<5.00E+00^1 CFU/carrier"}, {"measurement": "Log10 Reduction Compared to Control", "setting": "S. aureus ATCC 6538; [6]", "value": ">4.57"}, {"measurement": "Percent Reduction Compared to Control", "setting": "S. aureus ATCC 6538; [6]", "value": ">99.997", "unit": "%"}, {"measurement": "Average CFU/carrier", "setting": "S. aureus ATCC 6538; [6]", "value": "<5.00E+00^1 CFU/carrier"}, {"measurement": "Log10 Reduction Compared to Control", "setting": "S. aureus ATCC 6538; [7]", "value": ">4.58"}, {"measurement": "Percent Reduction Compared to Control", "setting": "S. aureus ATCC 6538; [7]", "value": ">99.997", "unit": "%"}, {"measurement": "Average CFU/carrier", "setting": "S. aureus ATCC 6538; [7]", "value": "<5.00E+00^1 CFU/carrier"}, {"measurement": "reduction of the concentration of microorganisms", "setting": "S. aureus ATCC 6538; Staphylococcus aureus, CHG 0.05% w/w, after 30 min contact time", "value": "more than 99.99%"}, {"measurement": "reduction of the concentration of the microorganisms", "setting": "S. aureus ATCC 6538; Staphylococcus aureus, CHG 0.1% w/w, after 60 min and 24 hour contact time", "value": "more than 99.99%"}, {"measurement": "Log10 Reduction Compared to Control", "setting": "P. aeruginosa ATCC 9027; [5]", "value": ">4.43"}, {"measurement": "Percent Reduction Compared to Control", "setting": "P. aeruginosa ATCC 9027; [5]", "value": ">99.996", "unit": "%"}, {"measurement": "Average CFU/carrier", "setting": "P. aeruginosa ATCC 9027; [5]", "value": "<5.00E+00^1 CFU/carrier"}, {"measurement": "Log10 Reduction Compared to Control", "setting": "P. aeruginosa ATCC 9027; [6]", "value": ">4.53"}, {"measurement": "Percent Reduction Compared to Control", "setting": "P. aeruginosa ATCC 9027; [6]", "value": ">99.996", "unit": "%"}, {"measurement": "Average CFU/carrier", "setting": "P. aeruginosa ATCC 9027; [6]", "value": "<5.00E+00^1 CFU/carrier"}, {"measurement": "Log10 Reduction Compared to Control", "setting": "P. aeruginosa ATCC 9027; [7]", "value": ">4.70"}, {"measurement": "Percent Reduction Compared to Control", "setting": "P. aeruginosa ATCC 9027; [7]", "value": ">99.998", "unit": "%"}, {"measurement": "Average CFU/carrier", "setting": "P. aeruginosa ATCC 9027; [7]", "value": "<5.00E+00^1 CFU/carrier"}, {"measurement": "reduction of the concentration of microorganisms", "setting": "P. aeruginosa ATCC 9027; Pseudomonas aeruginosa, CHG 0.05% w/w, after 30 min contact time", "value": "more than 99.99%"}, {"measurement": "reduction of the concentration of the microorganisms", "setting": "P. aeruginosa ATCC 9027; Pseudomonas aeruginosa, CHG 0.1% w/w, after 60 min and 24 hour contact time", "value": "more than 99.99%"}, {"measurement": "lowest dose showing strong efficacy against both bacteria and fungus", "setting": "bacteria and fungus", "value": 0.05, "unit": "% w/w"}, {"measurement": "Average CFU/carrier", "setting": "C. tropicalis ATCC 750 [3]; CHG Conc 0.005 % w/w", "value": "2.70E+04", "unit": "CFU/carrier"}, {"measurement": "Log10 Reduction Compared to Control", "setting": "C. tropicalis ATCC 750 [3]; CHG Conc 0.005 % w/w", "value": 0.73}, {"measurement": "Percent Reduction Compared to Control", "setting": "C. tropicalis ATCC 750 [3]; CHG Conc 0.005 % w/w", "value": 81.38, "unit": "%"}, {"measurement": "Log10 Reduction Compared to Control", "setting": "C. tropicalis ATCC 750 [3]; CHG Conc 0.1 % w/w", "value": ">4.46"}, {"measurement": "Percent Reduction Compared to Control", "setting": "C. tropicalis ATCC 750 [3]; CHG Conc 0.1 % w/w", "value": ">99.997", "unit": "%"}, {"measurement": "Average CFU/carrier", "setting": "C. tropicalis ATCC 750 [3]; CHG Conc 0.1 % w/w, limit of detection", "value": "<5.00E+00^1 CFU/carrier"}, {"measurement": "efficacy", "setting": "C. tropicalis ATCC 750 [3]; CHG 0.005% w/w", "value": 81.38, "unit": "%"}, {"measurement": "efficacy", "setting": "C. tropicalis ATCC 750 [3]; CHG 0.1% w/w", "value": 99.997, "unit": "%"}]}
